Results as given in patent US6001882A (priority 1997, dated 1999).
Several values for one entry are separate records, joined by “and”; a condition that tells them apart may be missing. Equal entries are not always repeated. Where two headings read alike, the source gives them in different places.

How the values were obtained:
normal PBMC = assay: Lymphocyte proliferation (3H-TdR incorporation), ConA-stimulated PBMC from normal human subject; format: cell-based; conditions: for IC50: read-out: IC50 of ConA-induced cell proliferation; for IC100: 72 h, read-out: concentration at which proliferation was completely inhibited
From the text: In two of the types of lymphocytes, the mitogen, ConA, was used to induce proliferation, as described (Fox et al., 1993, Cell. Immunol. 150:45-58). The third type of lymphocytes used in this example proliferated actively in vitro without the need for mitogenic stimulation. The three types of lymphocytes which were used in this example were: PBMC obtained from a normal human subject and stimulated with ConA; PBMC, including malignant CD4+ T-lymphocytes, obtained from a human subject having CTCL and stimulated with ConA; and PBMC obtained from a normal human subject, which PBMC were exposed to Epstein-Barr virus (EBV) after being obtained from the subject, to produce transformed lymphocytes. It is known that EBV-transformed B-lymphocytes proliferate actively in vitro (Polack, 1996, Proc. Natl. Acad. Sci. U.S.A. 93:10411-10416; Longnecker, 1994, Leukemia 8:546-550).
Peripheral blood mononuclear cells (PBMC) were obtained by separating them from whole blood, using Ficoll-Paque separation techniques and media (Boyum, 1964, Nature 793-794). After they were obtained, PBMC were resuspended in RPMI 1640 medium, which comprised 10% (v/v) fetal bovine serum (GIBCO, Grand Island, N.Y.), and were distributed into the wells of 96-well microtiter plates. PBMC transformed using EBV were made as described (Neitzel, 1986, Hum. Gen. 73:320-326)
This stock solution stored at 4° C. in the dark. A stock solution comprising 462.5 μM 8-methoxypsoralen (8-MOP) was prepared in 2% (v/v) benzyl alcohol. 8-MOP was obtained from Sigma (St. Louis, Mo.).
In cultures of transformed leukocytes in which 8-MOP was used, the concentrations of 8-MOP which were used were 92.5 μM, 18.5 μM, 3.7 μM, 0.74 μM, 0.15 μM, and 0.030 μM. Thereafter, ConA was then added to preselected wells to achieve a final concentration of 10 μg/ml of ConA in those wells.
Following preparation of the microtiter culture plates, preselected plates were illuminated with fluorescent visible light for 10-30 minutes, using four fluorescent bulbs (type F15T8CW, TFC Inc., Taiwan) spaced at a distance of 9 cm above the plates. Other preselected plates were illuminated with 0.5-2 Joules per square centimeter UV-A light using a UV-A light box containing 8 UVAR 06-91 bulbs. Still other preselected plates were not exposed to light. The covers of plates which were exposed to light were left in place during illumination.
Following illumination, plates which had been illuminated were placed into a dark incubator which was maintained at 37° C. Non-illuminated plates were placed into the incubator immediately after preparation. All plates were incubated for seventy-two hours. During the final eighteen hours of incubation, tritiated thymidine (^3 H-TdR) was added to each well of each plate. No extraordinary precautions were used to prevent light exposure during the addition of ^3 H-TdR.
Lymphocyte proliferation was assessed by measuring the extent of incorporation of ^3 H-TdR into newly synthesized DNA within the cells at the end of the seventy-two hour incubation period, as described (Fox, 1993, Cell. Immunol. 150:45-58).

[1] = test system: PBMC obtained from a patient having CTCL; assay: Induction of apoptosis of CTCL PBMC, TUNEL assay (Example 2); format: cell-based, human; conditions: for percentage of PBMC which underwent apoptosis: 10 μM hypericin or 100 ng/ml 8-MOP
Description: The processing of neoplastic leukocytes, the media and stock solutions used, and the procedures which were used were the same as those presented in Example 1, except as described below.
Cultures were illuminated using fluorescent light for 20 minutes, illuminated with 2 J/cm^2 UV-A light or were not illuminated. After 24 and 48 hours, apoptosis was measured using a TUNEL assay, as described (Sgonc, 1994 Trends Gen. 10:41-42). The TUNEL assay specifically labels free ends of internucleosomally-cleaved DNA--the hallmark of the apoptotic process.

malignant leukocytes = assay: Flow cytometric sorting of apoptotic malignant leukocytes (dUTP-FITC incorporation); format: cell-based, human; conditions: 10 μM hypericin or 0.462 μM 8-MOP, 18 h
From the text: FIG. 8, comprising Panels A-G, is a series of graphs which represent distributions of cell types within various cultures, as assessed by flow cytometric cell sorting, using incorporation of dUTP-FITC into fragmented DNA as a selection criterion. Malignant leukocytes which have not been induced to undergo apoptosis are represented as points which are located below an imaginary horizontal line located at approximately 2×10^1 on the vertical axis of each graph. Malignant leukocytes which have been induced to undergo apoptosis are represented as points which are located above an imaginary horizontal line located at approximately 3×10^1 on the vertical axis of each graph. […] The graph in Panel B corresponds to cells which were treated with hypericin and which were not illuminated. The graph in Panel C corresponds to cells which were treated with hypericin and which were illuminated using visible light. The graph in Panel D corresponds to cells which were treated with hypericin and which were illuminated using UV-A light. The graph in Panel E corresponds to cells which were treated with 8-MOP and which were not illuminated. The graph in Panel F corresponds to cells which were treated with 8-MOP and which were illuminated using visible light. The graph in Panel G corresponds to cells which were treated with 8-MOP and which were illuminated using UV-A light.
Hypericin-treated malignant leukocytes and 8-MOP-treated leukocytes were photoactivated using visible light for 20 minutes or 2 J/cm^2 UV-A light, or were not photoactivated, as described in Example 1. 18 hours after photoactivation, or 18 hours after preparation of the cultures which were not photoactivated, leukocyte cultures were harvested, and apoptotic cells were separated from non-apoptotic cells using a FACScan flow cytometer (Becton Dickinson Immunocytometry Systems, San Jose, Calif.). Apoptotic cells were distinguished from non-apoptotic cells based on increased dUTP-FITC incorporation.

[2] = test system: PBMC obtained from a normal human subject; assay: Induction of apoptosis in normal PBMC, TUNEL assay (Example 3); format: cell-based; conditions: for percentage of PBMC which underwent apoptosis: Normal, 18 h; for capability of inducing apoptosis: normal leukocytes, visible light
[3] = test system: PBMC obtained from a subject having CTCL; assay: Induction of apoptosis in CTCL PBMC, TUNEL assay (Example 3); format: cell-based, human; conditions: for percentage of PBMC which underwent apoptosis: CTCL, 18 h; for capability of inducing apoptosis: malignant leukocytes
[4] = Homo sapiens, PBMC, 10 min, visible light, 10 min
[5] = Homo sapiens, PBMC, 20 min, visible light, 20 min
[6] = Homo sapiens, PBMC, UV-A, 0.5 J/sc
[7] = Homo sapiens, PBMC, UV-A, 1 J/sc
[8] = Homo sapiens, PBMC, not illuminated, benzyl alcohol vehicle itself inhibitory at highest concentrations

Compound | IC50 (normal PBMC; [4]) [µM] | IC50 (normal PBMC; [5]) [µM] | IC50 (normal PBMC; [6]) [µM] | IC50 (normal PBMC; [7]) [µM] | IC50 (normal PBMC; [8]) [µM] | percentage of PBMC which underwent apoptosis ([1]; 24 h, UV-A 2 J/cm^2) [percentage] | percentage of PBMC which underwent apoptosis ([1]; 24 h, no light) [percentage] | percentage of PBMC which underwent apoptosis ([1]; 24 h, visible light 20 min) [percentage] | percentage of PBMC which underwent apoptosis ([1]; 48 h, UV-A 2 J/cm^2) [percentage] | percentage of PBMC which underwent apoptosis ([1]; 48 h, no light) [percentage] | percentage of PBMC which underwent apoptosis ([1]; 48 h, visible light 20 min) [percentage] | potency as inducer of apoptosis, hypericin vs 8-MOP ([1]; UV-A light) | induction of apoptosis (flow cytometry, FIG. 8) (malignant leukocytes; UV-A 2 J/cm^2) | induction of apoptosis (flow cytometry, FIG. 8) (malignant leukocytes; no photoactivation) | induction of apoptosis (flow cytometry, FIG. 8) (malignant leukocytes; visible light 20 min) | percentage of PBMC which underwent apoptosis ([2]; 1 μM, UV-A 2 J/cm^2) [percentage] | percentage of PBMC which underwent apoptosis ([2]; 1 μM, no light) [percentage] | percentage of PBMC which underwent apoptosis ([2]; 1 μM, visible light 20 min) [percentage] | percentage of PBMC which underwent apoptosis ([2]; 10 μM, UV-A 2 J/cm^2) [percentage] | percentage of PBMC which underwent apoptosis ([2]; 10 μM, no light) [percentage] | other results
COc1c2occc2cc2ccc(=O)oc12 [8-MOP, 8-methoxypsoralen] | 33.5 | 33.5 | 0.96 | 0.17 | 33.5 | 87 | 11.5 | 32 | 94 | 21 | 48 | approximately equally potent inducers of apoptosis of malignant leukocytes | induced apoptosis in most cells | neither hypericin nor 8-MOP induced significant apoptosis | induced apoptosis in only a limited number of cells | 22.9 | 3.8 | 13.7 | 63.0 | 6.8 | IC50 (normal PBMC; Homo sapiens, PBMC, 0.5 h, visible light, 30 min): 33.5 µM; IC50 (normal PBMC; Homo sapiens, PBMC, UV-A, 2 J/sc): 0.15 µM; percentage of PBMC which underwent apoptosis ([2]; 10 μM, visible light 20 min): 15.3 percentage; capability of inducing apoptosis [2]: not 8-MOP, is capable of inducing apoptosis in both normal and malignant leukocytes; percentage of PBMC which underwent apoptosis ([3]; 1 μM, UV-A 2 J/cm^2): 44.0 percentage; percentage of PBMC which underwent apoptosis ([3]; 1 μM, no light): 2.5 percentage; percentage of PBMC which underwent apoptosis ([3]; 1 μM, visible light 20 min): 11.0 percentage; percentage of PBMC which underwent apoptosis ([3]; 10 μM, UV-A 2 J/cm^2): 74.3 percentage; percentage of PBMC which underwent apoptosis ([3]; 10 μM, no light): 2.4 percentage; percentage of PBMC which underwent apoptosis ([3]; 10 μM, visible light 20 min): 12.2 percentage; selectivity of apoptosis induction, malignant vs normal leukocytes ([3]; UV-A light): the magnitude of the selective effect was much smaller; capability of inducing apoptosis ([3]; UV-A light): capable of inducing apoptosis in malignant leukocytes; capability of inducing apoptosis ([3]; visible light): not 8-MOP, is capable of inducing apoptosis in both normal and malignant leukocytes
Cc1cc(O)c2c(=O)c3c(O)cc(O)c4c5c(O)cc(O)c6c(=O)c7c(O)cc(C)c8c1c2c(c34)c(c78)c65 [hypericin, 1,3,4,6,8,13-Hexahydroxy-10,11,dimethyl-phenanthro[1,10,9,8,-opqra]perylene-7,14-dione] | 0.76 | 0.11 | 4.6 | 2.1 | 22 | 88 | 11.5 | 97 | 96 | 18 | 91 | approximately equally potent inducers of apoptosis of malignant leukocytes | induced apoptosis in most cells | neither hypericin nor 8-MOP induced significant apoptosis | induced apoptosis in nearly all cells | 21.2 | 4.8 | 18.2 | 37.3 | 5.4 | IC100 (normal PBMC; Homo sapiens, PBMC, visible light, 10 min): 3.2 µM; IC100 (normal PBMC; Homo sapiens, PBMC, visible light, 20 min): 0.64 µM; inhibition of mitogen-induced proliferation (normal PBMC; normal PBMC): inhibits mitogen-induced proliferation of PBMC; IC50 (normal PBMC; not illuminated, benzyl alcohol vehicle itself inhibitory at highest concentrations): 23.2 µM; effect of 30 min illumination on inhibition of proliferation (normal PBMC; visible light 30 min, relative to shorter illumination): did not significantly increase inhibition of cell proliferation; IC50 (normal PBMC; visible light, 10 min): 0.68 µM and 0.8 µM; IC50 (normal PBMC; visible light, 20 min): 0.18 µM and 0.1 µM; potency as inducer of apoptosis, hypericin vs 8-MOP ([1]; visible light): much more potent inducer of apoptosis of malignant leukocytes than 8-MOP; percentage of PBMC which underwent apoptosis ([2]; 10 μM, visible light 20 min): 87.9 percentage; capability of inducing apoptosis [2]: capable of inducing apoptosis in both normal and malignant leukocytes; percentage of PBMC which underwent apoptosis ([3]; 1 μM, UV-A 2 J/cm^2): 26.1 percentage; percentage of PBMC which underwent apoptosis ([3]; 1 μM, no light): 2.6 percentage; percentage of PBMC which underwent apoptosis ([3]; 1 μM, visible light 20 min): 17.2 percentage; percentage of PBMC which underwent apoptosis ([3]; 10 μM, UV-A 2 J/cm^2): 94.4 percentage; percentage of PBMC which underwent apoptosis ([3]; 10 μM, no light): 2.8 percentage; percentage of PBMC which underwent apoptosis ([3]; 10 μM, visible light 20 min): 94.3 percentage; capability of inducing apoptosis ([3]; UV-A light): capable of inducing apoptosis in malignant leukocytes; capability of inducing apoptosis ([3]; visible light): capable of inducing apoptosis in both normal and malignant leukocytes
